Numbers after ± are expanded uncertainties.
How the values were obtained:
[1] = Liquid; for mass density: 303.15 K, 101.33 kPa, Pycnometric method; for vapor or sublimation pressure: Ebulliometric method (Recirculating still)
[2] = excess molar enthalpy (molar enthalpy of mixing); xn = mol fraction of the nth substance listed; details: 298.15 K, 101 kPa, Liquid

With `CC(=O)CC(C)C` [4-methylpentan-2-one] the mass density [1] was 796.33 ± 3.6 kg/m3 and the “vapor or sublimation pressure” value ([1]; 386.65 K) was 95.3 ± 0.8 kPa.

For `CC(=O)CC(C)C` [4-methylpentan-2-one] + CN1CCCC1=O, the excess molar enthalpy ([2]; x1 = 0.0508) was 0.00545 ± 0.000908 kcal/mol, the excess molar enthalpy ([2]; x1 = 0.1052) was 0.0119 ± 0.0011 kcal/mol and the excess molar enthalpy ([2]; x1 = 0.1632) was 0.0183 ± 0.00131 kcal/mol. It also gave an excess molar enthalpy ([2]; x1 = 0.2234) of 0.0242 ± 0.00148 kcal/mol, an excess molar enthalpy ([2]; x1 = 0.2858) of 0.0304 ± 0.00167 kcal/mol and an excess molar enthalpy ([2]; x1 = 0.3815) of 0.04 ± 0.00198 kcal/mol. The excess molar enthalpy ([2]; x1 = 0.4258) was 0.0429 ± 0.00208 kcal/mol, the excess molar enthalpy ([2]; x1 = 0.4787) was 0.0432 ± 0.00208 kcal/mol and the excess molar enthalpy ([2]; x1 = 0.5346) was 0.0415 ± 0.00203 kcal/mol. It also gave an excess molar enthalpy ([2]; x1 = 0.599) of 0.0401 ± 0.00198 kcal/mol, an excess molar enthalpy ([2]; x1 = 0.6712) of 0.0362 ± 0.00186 kcal/mol and an excess molar enthalpy ([2]; x1 = 0.7536) of 0.0253 ± 0.00153 kcal/mol. For the same compound, the excess molar enthalpy ([2]; x1 = 0.8369) was 0.0156 ± 0.00122 kcal/mol and the excess molar enthalpy ([2]; x1 = 0.9192) was 0.00581 ± 0.000932 kcal/mol.

In the case of `CN1CCCC1=O` [N-methylpyrrolidone], the mass density [1] is reported as 1023.4 ± 0.84 kg/m3 and the “vapor or sublimation pressure” value ([1]; 473.25 K) is reported as 95.3 ± 1.9 kPa.

With `CCC(C)=O` [butanone] the mass density [1] was 799.71 ± 3.7 kg/m3 and the “vapor or sublimation pressure” value ([1]; 350.85 K) was 95.3 ± 2 kPa.

For `CCC(C)=O` [butanone] + CN1CCCC1=O, the excess molar enthalpy ([2]; x1 = 0.0565) was -0.00626 ± 0.000932 kcal/mol, the excess molar enthalpy ([2]; x1 = 0.1162) was -0.0109 ± 0.00108 kcal/mol and the excess molar enthalpy ([2]; x1 = 0.1812) was -0.0161 ± 0.00124 kcal/mol. The excess molar enthalpy ([2]; x1 = 0.2461) was -0.0239 ± 0.00148 kcal/mol, the excess molar enthalpy ([2]; x1 = 0.3104) was -0.0306 ± 0.0017 kcal/mol and the excess molar enthalpy ([2]; x1 = 0.369) was -0.0355 ± 0.00184 kcal/mol. For the same compound, the excess molar enthalpy ([2]; x1 = 0.4334) was -0.0382 ± 0.00194 kcal/mol, the excess molar enthalpy ([2]; x1 = 0.4841) was -0.04 ± 0.00198 kcal/mol and the excess molar enthalpy ([2]; x1 = 0.5458) was -0.0377 ± 0.00191 kcal/mol. It also gave an excess molar enthalpy ([2]; x1 = 0.6781) of -0.0277 ± 0.0016 kcal/mol, an excess molar enthalpy ([2]; x1 = 0.7324) of -0.0206 ± 0.00139 kcal/mol and an excess molar enthalpy ([2]; x1 = 0.7935) of -0.0148 ± 0.0012 kcal/mol. It also gave an excess molar enthalpy ([2]; x1 = 0.8525) of -0.0117 ± 0.0011 kcal/mol, an excess molar enthalpy ([2]; x1 = 0.9112) of -0.00593 ± 0.000932 kcal/mol and an excess molar enthalpy ([2]; x1 = 0.9609) of -0.0048 ± 0.000908 kcal/mol.

In the case of `O=C1CCCCC1` [cyclohexanone], the “vapor or sublimation pressure” value ([1]; 426.25 K) is reported as 95.3 ± 1.1 kPa.

Work on `O=C1CCCCC1` [cyclohexanone] + CN1CCCC1=O yielded an excess molar enthalpy ([2]; x1 = 0.0609) of 0.0043 ± 0.000884 kcal/mol, an excess molar enthalpy ([2]; x1 = 0.1242) of 0.013 ± 0.00115 kcal/mol and an excess molar enthalpy ([2]; x1 = 0.1855) of 0.0201 ± 0.00136 kcal/mol. It also gave an excess molar enthalpy ([2]; x1 = 0.2495) of 0.0261 ± 0.00155 kcal/mol, an excess molar enthalpy ([2]; x1 = 0.3151) of 0.0331 ± 0.00177 kcal/mol and an excess molar enthalpy ([2]; x1 = 0.3761) of 0.0391 ± 0.00196 kcal/mol. The excess molar enthalpy ([2]; x1 = 0.4301) was 0.0425 ± 0.00206 kcal/mol, the excess molar enthalpy ([2]; x1 = 0.4527) was 0.0461 ± 0.00217 kcal/mol and the excess molar enthalpy ([2]; x1 = 0.5028) was 0.0484 ± 0.00227 kcal/mol. It also gave an excess molar enthalpy ([2]; x1 = 0.5608) of 0.0481 ± 0.00225 kcal/mol, an excess molar enthalpy ([2]; x1 = 0.6249) of 0.0477 ± 0.00225 kcal/mol and an excess molar enthalpy ([2]; x1 = 0.6866) of 0.04 ± 0.00198 kcal/mol. It also gave an excess molar enthalpy ([2]; x1 = 0.7491) of 0.0317 ± 0.00172 kcal/mol, an excess molar enthalpy ([2]; x1 = 0.8134) of 0.0237 ± 0.00148 kcal/mol and an excess molar enthalpy ([2]; x1 = 0.8794) of 0.0158 ± 0.00124 kcal/mol. For the same compound, the excess molar enthalpy ([2]; x1 = 0.9445) was 0.00798 ± 0.001 kcal/mol.
